# Measurements as given in PubChem BioAssay (NCI).
#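 How tested: cells in 96-well plates exposed to compound for 48 hours at five concentrations. Here, GI50 denotes the concentration required for 50% inhibition of growth. TGI denotes the concentration required for complete inhibition of growth.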
# How the values were obtained:
# Assay in all cases: NCI anticancer screen, dose series, 48 h
# [1] = system: SN12C renal
# [2] = system: HT29 colon
# [3] = system: MCF7 breast
# [4] = system: LOX IMVI melanoma
# [5] = system: EKVX NSCLC
# [6] = system: SK-MEL-2 melanoma
# [7] = system: K-562 leukemia
# [8] = system: SNB-75 CNS
# [9] = system: OVCAR-3 ovarian
# [10] = system: NCI-H23 lung
# [11] = system: U251 CNS
# [12] = system: NCI/ADR-RES ovarian
# [13] = system: DU-145 prostate
# [14] = system: UACC-62 melanoma
# [15] = system: CAKI-1 renal
# [16] = system: NCI-H522 lung
# [17] = system: SF-268 CNS
# [18] = system: OVCAR-4 ovarian
# [19] = system: SK-OV-3 ovarian
# [20] = system: SF-295 CNS
# [21] = system: RPMI-8226 leukemia
# [22] = system: ACHN renal
# [23] = system: MOLT-4 leukemia
# [24] = system: MDA-MB-435
# [25] = system: A498 renal
smiles,measurement,setting,value
Cc1cc(N2CCCCC2)nc(NCc2cc(Nc3ccnc4cc(Cl)ccc34)ccc2F)n1,GI50,[1],1670 nM
same,TGI,[1],3620 nM
same,GI50,[2],795 nM
same,TGI,[2],2210 nM
same,GI50,[3],298 nM
same,TGI,[3],1460 nM
same,GI50,[4],1730 nM
same,TGI,[4],3290 nM
same,GI50,[5],1620 nM
same,TGI,[5],3770 nM
same,GI50,[6],1890 nM
same,TGI,[6],3590 nM
same,GI50,[7],2070 nM
same,TGI,[7],5170 nM
same,GI50,[8],1390 nM
same,TGI,[8],2830 nM
same,GI50,[9],1740 nM
same,TGI,[9],3170 nM
same,GI50,[10],1830 nM
same,TGI,[10],4920 nM
same,GI50,[11],1710 nM
same,TGI,[11],3150 nM
same,GI50,[12],2000 nM
same,TGI,[12],4740 nM
same,GI50,[13],1490 nM
same,TGI,[13],3140 nM
same,GI50,[14],1620 nM
same,TGI,[14],3440 nM
same,GI50,[15],1740 nM
same,TGI,[15],3320 nM
same,GI50,[16],1710 nM
same,TGI,[16],3370 nM
same,GI50,[17],1350 nM
same,TGI,[17],3110 nM
same,GI50,[18],1390 nM
same,TGI,[18],2950 nM
same,GI50,[19],1930 nM
same,TGI,[19],3480 nM
same,GI50,[20],1320 nM
same,TGI,[20],2700 nM
same,GI50,[21],1880 nM
same,TGI,[21],4550 nM
same,GI50,[22],1660 nM
same,TGI,[22],3250 nM
same,GI50,[23],1670 nM
same,TGI,[23],4820 nM
same,GI50,[24],1640 nM
same,TGI,[24],3140 nM
same,GI50,[25],178 nM
same,TGI,[25],999 nM
